Values of other authors in patent publication US20050064019A1, “Impregnated, flexible, rawhide pet chews containing antimicrobially active chlorhexdine” (priority 2003, published 2005).

Key:
[1] = two years continuous use
bacterial spores = details: except at elevated temperatures
[2] = rat, in vivo

## [H]/N=C(\N/C(=N/[H])NCCCCCCNC(=N)NC(=N)Nc1ccc(Cl)cc1)Nc1ccc(Cl)cc1 [chlorhexidine]
[1]
  Side effects in long term trials: no systemic or serious local side effects
Bacterial spores
  Activity against bacterial spores: inactive
Fungal spores
  Activity against fungal spores: inactive
other
  Solubility in water: practically insoluble in water
[2]
  Tolerance of chlorhexidine in drinking water: without detectable interference with growth and reproduction
